Drawing on patent EP0072121A1, “Beta-lactam antibiotics” (BEECHAM GROUP PLC, priority 1981, dated 1983), this text covers MIC for two molecules.

What all share (test): standard MIC test
Holding throughout (assay type): cell-based

In assay [1] the test system is Klebsiella aerogenes Ba95. The text has this:
(§1) In a standard MIC test the compound of Examples 1 and 2 afforded the following data (µg/ml).

The test system of assay [2] is Staphylococcus aureus Russell MB9.
Source text: as §1

The next assay has as its system Proteus rettgeri WM16. The note with it: Providencia rettgeri.
Source text: as §1

The test system of a further assay is Citrobacter freundii E8.
Source text: as §1

The test system of another assay is Bacillus subtilis A.
Source text: as §1

The subject of assay [3] is Proteus mirabilis 977 [13].
Source text: as §1

For assay [4], the system named is Pseudomonas aeruginosa A [11].
Source text: as §1

The subject of assay [5] is Salmonella typhimurium CT10. The note with it: Salmonella enterica.
Source text: as §1

The test system of assay [6] is Staphylococcus aureus 1517.
Source text: as §1

For assay [7], the system named is Staphylococcus aureus Oxford.
Source text: as §1

The next assay has as its system Pseudomonas Dalgleish.
Source text: as §1

Another assay relates to Streptocuccus faecalis I.
Source text: as §1

For assay [8], the system named is Streptocuccus pyogenes CN10.
Source text: as §1

Assay [9] deals with Escherichia coli JT39 [E96].
Source text: as §1

Another assay relates to Escherichia coli JT410.
Source text: as §1

For assay [10], the system named is Enterobacter cloacae N1 [T753].
Source text: as §1

Another assay relates to Escherichia coli JT20.
Source text: as §1

The test system of assay [11] is Escherichia coli O111 [E8].
Source text: as §1

The test system of assay [12] is Klebsiella aerogenes A [T767].
Source text: as §1

The next assay has as its system Escherichia coli ESS.
Source text: as §1

The subject of the next assay is Proteus vulgaris W091.
Source text: as §1

A further assay has as its system Shigella sonnei MB11967.
Source text: as §1

In another assay the test system is Proteus morganii 1580. The settings on record: Morganella morganii.
Source text: as §1

The test system of assay [13] is Streptococcus pneumoniae CN33.
Source text: as §1

In brackets after ≈: the same amount, converted by molar mass. A value given as a limit tells only on which side of the number the result lay.

For the molecule `CC(=N)NCCOC(=O)/C=C\SC1=C(C(=O)O)N2C(=O)[C@@H]([C@H](C)O)[C@H]2C1` [Ex.1, (5R,6R)-3-[(Z)-2-Acetimidoylaminoethyloxycarbonyl-ethenylthio]-6-[(S)-1-hydroxyethyl]-7-oxo-1-azabicyclo[3.2.0]hept-2-ene-2-carboxylic acid], the MIC in assay [1] was 3.1 µg/mL (≈ 8.09 µM); in [2], ≤ 0.1 µg/mL; against Proteus rettgeri WM16, 1.6 µg/mL (≈ 4.17 µM); against Citrobacter freundii E8, 0.4 µg/mL (≈ 1.04 µM); with Bacillus subtilis A it was ≤ 0.1 µg/mL; in assay [3] it was 0.4 µg/mL (≈ 1.04 µM). Also, the MIC in assay [4] was 25 µg/mL (≈ 65.2 µM); in assay [5] it was 0.2 µg/mL (≈ 0.522 µM); in assay [6], 0.8 µg/mL (≈ 2.09 µM); in [7], ≤ 0.1 µg/mL; against Pseudomonas Dalgleish it was 25 µg/mL (≈ 65.2 µM); in the assay with Streptocuccus faecalis I it was ≤ 0.1 µg/mL. Also, the MIC is ≤ 0.1 µg/mL in assay [8]; 0.2 µg/mL (≈ 0.522 µM) in [9]; 0.2 µg/mL (≈ 0.522 µM) with Escherichia coli JT410; 3.1 µg/mL (≈ 8.09 µM) in assay [10]; 3.1 µg/mL (≈ 8.09 µM) in the assay with Escherichia coli JT20; 0.2 µg/mL (≈ 0.522 µM) in assay [11]. Moreover, the MIC in assay [12] was 0.2 µg/mL (≈ 0.522 µM); in the assay on Escherichia coli ESS it was ≤ 0.1 µg/mL; with Proteus vulgaris W091, 3.1 µg/mL (≈ 8.09 µM); in the assay on Shigella sonnei MB11967 it was 0.2 µg/mL (≈ 0.522 µM); against Proteus morganii 1580, 1.6 µg/mL (≈ 4.17 µM); in [13], ≤ 0.1 µg/mL.
For `CC(=N)NCCOC(=O)/C=C\SC1=C(C(=O)O)N2C(=O)[C@H]([C@@H](C)O)[C@H]2C1` [Ex.2, (5R,6S)-3-[(S)-2-Acetimidoylaminoethyloxycarbonyl-ethenylthio]-6-[(R)-1-hydroxyethyl]-7-oxo-1-azabicyclo [3.2.0]hept-2-ene-2-carboxylic acid], the minimum inhibitory concentration (MIC) in [1] is 0.4 µg/mL (≈ 1.04 µM); in assay [2], ≤ 0.1 µg/mL; against Proteus rettgeri WM16 it was 0.8 µg/mL (≈ 2.09 µM); against Citrobacter freundii E8, 0.4 µg/mL (≈ 1.04 µM); against Bacillus subtilis A, < 0.1 µg/mL; in [3] it was 0.8 µg/mL (≈ 2.09 µM). Also, the MIC in [4] was 25 µg/mL (≈ 65.2 µM); in assay [5] it was 0.2 µg/mL (≈ 0.522 µM); in [6] it was 1.6 µg/mL (≈ 4.17 µM); in assay [7] it was ≤ 0.1 µg/mL; in the assay on Pseudomonas Dalgleish, 25 µg/mL (≈ 65.2 µM); in the assay on Streptocuccus faecalis I it was 0.2 µg/mL (≈ 0.522 µM). The MIC in [9] stood at 0.2 µg/mL (≈ 0.522 µM); against Escherichia coli JT410, 0.2 µg/mL (≈ 0.522 µM); in assay [10], 0.8 µg/mL (≈ 2.09 µM); in the assay with Escherichia coli JT20 it was 0.2 µg/mL (≈ 0.522 µM); in assay [11], 0.2 µg/mL (≈ 0.522 µM); in assay [12], 0.2 µg/mL (≈ 0.522 µM). The MIC against Escherichia coli ESS was determined as 0.2 µg/mL (≈ 0.522 µM); against Proteus vulgaris W091 it was 0.8 µg/mL (≈ 2.09 µM); against Shigella sonnei MB11967, 0.2 µg/mL (≈ 0.522 µM); in the assay on Proteus morganii 1580, 1.6 µg/mL (≈ 4.17 µM).

One may read the MIC as the least concentration at which growth counts as inhibited. A low value points to greater potency.
